{
  "source": "patent US4699898A",
  "about": "“Tripeptides affecting immune response” (Imreg, Inc., priority 1985, dated 1987)",
  "tested_on": "dermal reaction to tetanus toxoid antigen",
  "settings": "in vivo",
  "note": "Residues, ends and D or L forms follow the SMILES beside them.",
  "data": [
    {"smiles": "N[C@@H](Cc1ccc(O)cc1)C(=O)NCC(=O)NCC(=O)O", "note": "[TGG, Tyr-Gly-Gly] (H-Tyr-Gly-Gly-OH)", "values": [
      {"measurement": "Dermal reaction without antigen", "value": "No reaction was observed"}
    ]}
  ]
}
